Experimental data as given in PMC10154249, “Unique progerin C-terminal peptide ameliorates Hutchinson–Gilford progeria syndrome phenotype by rescuing BUBR1” (Nature Aging, 2023).
Where “and” joins values, the source holds several entries; their conditions need not be identical. Equal entries are not always repeated.

How the values were obtained:
[1] = tested on: IMR90 cells; experiment: Cell survival rate analysis in IMR90 cells; type: cell-based, human; details: Fig. 5o, 48h
Description: Cell viability was assessed using the Cell Counting Kit-8 (CCK8) (APE, catalog no. k1018). The cells were plated in triplicate in 96-well plates (typically 10,000 cells per 100 μl per well) and were incubated with fresh medium for 24 h. Then, the cells were incubated with different concentrations (0 μM, 10 μM, 20 μM, 30 μM) of UPCP for 0 h, 24 h, 48 h or 72 h. CCK8 solution (10 μl) was added to the well for a 2 h incubation at 37 °C. Absorbance was measured at 450 nm with a 96-well plate reader (Tecan Infinite M NANO^+). Data were analyzed and further processed in i-control v.2.0 and GraphPad Prism v.7.

[2] = tested on: muscle of Lmna^G609G/G609G mice; experiment: Masson staining of muscle (fibrosis); type: in vivo, mouse; details: 13 weeks
Description: (§1) For UPCP injection, 14-day-old Lmna^G609G/G609G mice were injected intraperitoneally with either PBS or UPCP (20 mg kg^–1, every other day) and wild-type mice were injected with PBS. […] Bodyweight and lifespan were monitored after UPCP treatment. The survival rate was analyzed by the Kaplan–Meier method. We only included mice that were of sufficient bodyweight at the start of the experiment, typically at least 80% of the average littermate weight of the same sex and genotype. All animals meeting criteria for inclusion were then divided randomly into three groups according to genotype (Lmna^+/+, Lmna^G609G/G609G-Mock and Lmna^G609G/G609G-UPCP).
(§2) For histological analyses, mice of the indicated genotypes were perfused with PBS, then with 4% paraformaldehyde (PFA). Whole organs were incubated in 4% PFA at 4 °C for 16 h. All samples were paraffin embedded and sectioning by Servicebio. Subsequently, the tissues were deparaffinized and rehydrated before hematoxylin-eosin (HE) or Masson staining or immunohistochemistry (IHC). HE staining was performed using an HE Kit (Absin, catalog no. abs9217), and Masson staining was performed using Masson’s Trichrome Stain Kit (Absin, catalog no. abs9347) according to the manufacturer’s instructions. The thickness of the layers or the areas of fibrosis in the tissues were calculated using ImageJ software by a blinded investigator. For IHC, the sections were completed by the Servicebio. The images were acquired by a microscope (Leica DMi8) and analyzed with Leica Application Suite X v.3.6.0.24 (Leica). For BubR1, cytoplasmic staining in cells was scored on the intensity of staining and the proportion of positive cells by a blinded investigator. The intensity of the staining was graded as 0 (negative, no color), 1 (low positive, light yellow), 2 (positive, brown yellow) or 3 (high positive, brown), and the number of positive cells was graded as 0 (<5%), 1 (5–25%), 2 (25–50%), 3 (51–75%) or 4 (>75%). The final score was defined as staining number score multiplied by staining color score. For lamin B1, p21 or IL-6, the proportion of positive cells was used to quantify the expression of protein in tissues by a blinded investigator.

[3] = tested on: HGADFN003 cells; experiment: SA-β-gal staining of HGADFN003 cells; type: cell-based, human; details: for Relative percentage of SA-β-gal positive cells: Fig. 5a, Mock 32, 39, 31, P=0.0059; for SA-β-gal positive cells: HGADFN003, Extended Data Fig. 10c
Description: SA-β-gal staining was performed as previously described. Cells were fixed in 0.5% glutaraldehyde for 15 min at room temperature, washed three times with PBS (pH 6.0) containing 1 mM MgCl2 and exposed overnight 37 °C to containing 1 mg ml^–1 5-bromo-4-chloro-3-indolyl-β-D-galactopyranoside (MCE, catalog no. HY-15934), 0.12 mM potassium ferrocyanide (Sigma, catalog no. P3289), 0.12 mM potassium ferricyanide (Sigma, catalog no. P8131) and 1 mM MgCl2 PBS buffer (pH 6.0). Cells were washed three times with H2O and observed under a microscope (OLYMPUS CKX53). SA-β-gal positive cells were quantified by investigators who were blinded to the identity of the analyzed cell.

[4] = tested on: skin of Lmna^G609G/G609G mice; experiment: Histology of skin (epidermis, subcutaneous fat layers); type: in vivo, mouse; details: 13 weeks; for subcutaneous fat layers, Mean / subcutaneous fat layers: 20 mg kg^–1 i.p.
Description: as §1, §2

[5] = tested on: IMR90-progerin cells; experiment: 53BP1 foci in IMR90-progerin cells; type: cell-based, human; details: IMR90-Flag-progerin+UPCP
Description: Immunofluorescence was performed as described previously. Cells were plated on cover slips in 12-well plates, left overnight before the treatment. Cells were fixed in 1% formaldehyde in culture medium for 10 min at 37 °C and permeabilized with 0.2% Triton X-100 in PBS for 10 min at room temperature. Cells were washed twice in PBS and blocked for 1 h with 5% BSA in PBS and then incubated with primary antibodies at 4 °C overnight, washed three times in PBS and incubated with secondary antibodies for 1 h at room temperature. Cell nuclei were counterstained with a 500 nM concentration of 4,6-diamidino-2-phenylindole (DAPI) (Sigma). Images were acquired by a fluorescence microscope (OLYMPUS FV-1000, Carl Zeiss LSM880 or Leica DMi8) and analyzed with software NIS-Elements AR v.5.0.1 (Nikon), FLUOVIEW v.4.2b (OLYMPUS), ZEN v.2.3 SP1 (Carl Zeiss) and Leica Application Suite X v.3.6.0.24 (Leica). Cells were quantified by investigators who were blinded to the identity of the analyzed cell.

[6] = 20 mg kg^–1 i.p. every other day

H-YGRKKRRQRRRYNLRSRTVLCGTCGQPADKASASGSGAQSPQNCSIM-OH (cysteines drawn unpaired) [UPCP, unique progerin C-terminal peptide]
Cell survival rate analysis (UPCP-OD/Mock-OD) ([1]; 10μM, UPCP-0μM = 1, P=0.1549, replicate 1): 0.9983
Cell survival rate analysis (UPCP-OD/Mock-OD) ([1]; 10μM, UPCP-0μM = 1, P=0.1549, replicate 2): 1.052
Cell survival rate analysis (UPCP-OD/Mock-OD) ([1]; 10μM, UPCP-0μM = 1, P=0.1549, replicate 3): 1.032
Cell survival rate analysis (UPCP-OD/Mock-OD) ([1]; 20μM, UPCP-0μM = 1, P=0.2306, replicate 1): 1.032
Cell survival rate analysis (UPCP-OD/Mock-OD) ([1]; 20μM, UPCP-0μM = 1, P=0.2306, replicate 2): 1.043
Cell survival rate analysis (UPCP-OD/Mock-OD) ([1]; 20μM, UPCP-0μM = 1, P=0.2306, replicate 3): 1.31
Cell survival rate analysis (UPCP-OD/Mock-OD) ([1]; 30μM, UPCP-0μM = 1, P=0.4981, replicate 1): 0.9716
Cell survival rate analysis (UPCP-OD/Mock-OD) ([1]; 30μM, UPCP-0μM = 1, P=0.4981, replicate 2): 1.072
Cell survival rate analysis (UPCP-OD/Mock-OD) ([1]; 30μM, UPCP-0μM = 1, P=0.4981, replicate 3): 1.021
fibrosis, muscle [2, 6]: decrease of fibrosis in the muscle
fibrosis area/ total area, muscle ([2]; 20 mg kg^–1 i.p., replicate 1): 0.003895 and 0.3895%
fibrosis area, muscle ([2]; 20 mg kg^–1 i.p., replicate 1, total area 340.18): 1.325
fibrosis area, muscle ([2]; 20 mg kg^–1 i.p., replicate 2, total area 353.151): 1.196
fibrosis area, muscle ([2]; 20 mg kg^–1 i.p., replicate 3, total area 365.081): 2.133
Relative percentage of SA-β-gal positive cells ([3]; HGADFN003, replicate 1): 15%
Relative percentage of SA-β-gal positive cells ([3]; HGADFN003, replicate 2): 10%
Relative percentage of SA-β-gal positive cells ([3]; HGADFN003, replicate 3): 19%
SA-β-gal activity (FTI-277/UPCP comparison, words) ([3]; HGADFN003): decreased the activity of SA-β-gal
SA-β-gal positive cells ([3]; replicate 1): 12%
SA-β-gal positive cells ([3]; replicate 2): 18%
SA-β-gal positive cells ([3]; replicate 3): 25%
SA-β-gal activity ([3]; HGPS cells): reduced activity of SA-β-gal
efficacy on HGPS cellular senescence relative to FTI-277 ([3]; HGPS cells): comparable with farnesyltransferase inhibitors (FTI-277)
dermal fat loss [4, 6]: improved
epidermal thinning [4, 6]: improved
subcutaneous fat layers, Mean ([4]; sample 1, mean of 3 measurements): 0.2193 mm
subcutaneous fat layers ([4]; sample 1, measurement 1): 0.2 mm
subcutaneous fat layers ([4]; sample 1, measurement 2): 0.243 mm
subcutaneous fat layers ([4]; sample 1, measurement 3): 0.215 mm
subcutaneous fat layers, Mean ([4]; sample 2, mean of 3 measurements): 0.1593 mm
subcutaneous fat layers ([4]; sample 2, measurement 1): 0.146 mm
subcutaneous fat layers ([4]; sample 2, measurement 2): 0.185 mm
subcutaneous fat layers ([4]; sample 2, measurement 3): 0.147 mm
subcutaneous fat layers, Mean ([4]; sample 3, mean of 3 measurements): 0.1467 mm
subcutaneous fat layers ([4]; sample 3, measurement 1): 0.174 mm
subcutaneous fat layers ([4]; sample 3, measurement 2): 0.153 mm
subcutaneous fat layers ([4]; sample 3, measurement 3): 0.113 mm
53BP1 foci per cell, n>10 ([5]; replicate 1): 54%
53BP1 foci per cell, n≤10 ([5]; replicate 1): 46%
53BP1 foci per cell, n>10 ([5]; replicate 2): 43%
53BP1 foci per cell, n≤10 ([5]; replicate 2): 57%
53BP1 foci per cell, n>10 ([5]; replicate 3): 59%
53BP1 foci per cell, n≤10 ([5]; replicate 3): 41%
